Reference: article PMC6625793, “The autophagic membrane tether ATG2A transfers lipids between membranes” (eLife, 2019)

Key:
Format in all cases: binding
ATG2A = target: T1, ATG2A (Homo sapiens, UniProt Q2TAZ0); experiment: lipid extraction from LUVs, Nycodenz flotation, native PAGE fluorescence; settings: 20 mM HEPES pH 7.5, 150 mM NaCl, 1 mM TCEP; ~22 °C; 20% NBD-PE/80% DOPC LUVs; labelled compound
T1 construct: full-length (1938 residues); N-terminal GST cleaved by TEV, C-terminal TwinStrepII tag kept; expressed in Sf9 insect cells
T1 sequence (Q2TAZ0 whole entry): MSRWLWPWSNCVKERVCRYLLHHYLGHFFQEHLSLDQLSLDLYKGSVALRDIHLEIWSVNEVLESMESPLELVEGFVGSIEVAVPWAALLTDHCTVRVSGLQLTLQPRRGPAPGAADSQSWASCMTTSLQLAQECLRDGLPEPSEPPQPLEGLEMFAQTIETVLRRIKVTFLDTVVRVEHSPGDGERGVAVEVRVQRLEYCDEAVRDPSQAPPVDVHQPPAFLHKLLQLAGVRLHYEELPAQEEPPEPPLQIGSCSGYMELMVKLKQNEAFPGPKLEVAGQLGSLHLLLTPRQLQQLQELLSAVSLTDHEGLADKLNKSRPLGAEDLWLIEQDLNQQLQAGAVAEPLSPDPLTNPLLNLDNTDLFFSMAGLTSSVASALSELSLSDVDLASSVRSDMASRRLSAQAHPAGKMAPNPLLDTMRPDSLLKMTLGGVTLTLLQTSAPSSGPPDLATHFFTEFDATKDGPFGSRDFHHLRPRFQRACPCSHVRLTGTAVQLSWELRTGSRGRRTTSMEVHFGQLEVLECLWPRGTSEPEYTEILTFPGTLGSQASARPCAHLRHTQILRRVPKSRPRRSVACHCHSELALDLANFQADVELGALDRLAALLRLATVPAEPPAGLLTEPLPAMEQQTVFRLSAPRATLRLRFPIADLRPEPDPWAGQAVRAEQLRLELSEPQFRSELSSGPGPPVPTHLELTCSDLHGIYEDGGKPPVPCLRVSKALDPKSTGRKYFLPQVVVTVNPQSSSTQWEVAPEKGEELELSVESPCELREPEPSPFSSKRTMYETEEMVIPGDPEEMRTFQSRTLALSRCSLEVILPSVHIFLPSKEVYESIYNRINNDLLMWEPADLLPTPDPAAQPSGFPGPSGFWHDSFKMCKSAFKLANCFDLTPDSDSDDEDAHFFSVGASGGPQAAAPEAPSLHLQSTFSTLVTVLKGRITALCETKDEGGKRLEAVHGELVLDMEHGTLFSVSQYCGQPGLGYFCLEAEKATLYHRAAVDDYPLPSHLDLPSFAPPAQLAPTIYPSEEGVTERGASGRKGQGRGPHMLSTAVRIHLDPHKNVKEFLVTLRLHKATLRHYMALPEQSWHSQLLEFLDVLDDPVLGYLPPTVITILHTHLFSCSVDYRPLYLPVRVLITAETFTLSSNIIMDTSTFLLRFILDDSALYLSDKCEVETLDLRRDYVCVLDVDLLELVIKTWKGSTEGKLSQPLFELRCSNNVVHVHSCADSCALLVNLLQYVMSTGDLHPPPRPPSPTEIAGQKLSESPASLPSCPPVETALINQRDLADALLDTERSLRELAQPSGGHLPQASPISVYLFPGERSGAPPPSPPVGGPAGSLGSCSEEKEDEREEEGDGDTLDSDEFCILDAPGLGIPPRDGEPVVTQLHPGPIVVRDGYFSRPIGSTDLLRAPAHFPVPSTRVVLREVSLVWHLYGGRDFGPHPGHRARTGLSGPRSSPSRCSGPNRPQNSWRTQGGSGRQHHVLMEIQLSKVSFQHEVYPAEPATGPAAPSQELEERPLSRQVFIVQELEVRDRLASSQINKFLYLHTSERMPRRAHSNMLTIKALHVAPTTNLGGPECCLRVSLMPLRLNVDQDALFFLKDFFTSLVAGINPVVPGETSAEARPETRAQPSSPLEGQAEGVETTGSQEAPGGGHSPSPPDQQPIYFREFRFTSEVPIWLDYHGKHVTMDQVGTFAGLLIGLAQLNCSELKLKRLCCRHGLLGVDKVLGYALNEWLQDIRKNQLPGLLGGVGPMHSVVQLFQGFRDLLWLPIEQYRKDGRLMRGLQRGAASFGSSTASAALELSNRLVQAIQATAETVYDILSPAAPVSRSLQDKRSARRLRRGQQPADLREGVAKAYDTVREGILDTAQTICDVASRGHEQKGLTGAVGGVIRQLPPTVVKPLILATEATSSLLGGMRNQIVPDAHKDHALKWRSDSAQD

WIPI4 = target: T2, WIPI4 (Homo sapiens, UniProt Q9Y484); experiment: liposome flotation, western blot; settings: 20 mM HEPES pH 7.5, 150 mM NaCl, 1 mM TCEP; LUVs with 5% PI3P versus without PI3P
T2 construct: gene WDR45; N-terminal 10xHis tag kept in flotation assays; expressed in Sf9 insect cells
T2 sequence (Q9Y484 1-360): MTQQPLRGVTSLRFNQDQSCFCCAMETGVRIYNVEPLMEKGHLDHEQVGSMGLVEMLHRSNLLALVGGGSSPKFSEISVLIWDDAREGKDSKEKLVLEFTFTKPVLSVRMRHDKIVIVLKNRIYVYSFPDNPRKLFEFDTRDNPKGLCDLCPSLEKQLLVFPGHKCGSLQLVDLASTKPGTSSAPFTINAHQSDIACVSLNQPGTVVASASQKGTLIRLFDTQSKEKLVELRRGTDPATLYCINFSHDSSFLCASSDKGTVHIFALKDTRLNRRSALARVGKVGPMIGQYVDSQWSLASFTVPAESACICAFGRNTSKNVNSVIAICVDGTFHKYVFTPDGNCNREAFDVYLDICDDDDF

WIPI1 = target: T3, WIPI1 (Homo sapiens, UniProt Q5MNZ9); experiment: liposome flotation, western blot; settings: 20 mM HEPES pH 7.5, 150 mM NaCl, 1 mM TCEP; LUVs with 5% PI3P versus without PI3P
T3 construct: residues 1-446; N-terminal 6xHis tag kept in flotation assays; expressed in Sf9 insect cells
T3 sequence (Q5MNZ9 1-446): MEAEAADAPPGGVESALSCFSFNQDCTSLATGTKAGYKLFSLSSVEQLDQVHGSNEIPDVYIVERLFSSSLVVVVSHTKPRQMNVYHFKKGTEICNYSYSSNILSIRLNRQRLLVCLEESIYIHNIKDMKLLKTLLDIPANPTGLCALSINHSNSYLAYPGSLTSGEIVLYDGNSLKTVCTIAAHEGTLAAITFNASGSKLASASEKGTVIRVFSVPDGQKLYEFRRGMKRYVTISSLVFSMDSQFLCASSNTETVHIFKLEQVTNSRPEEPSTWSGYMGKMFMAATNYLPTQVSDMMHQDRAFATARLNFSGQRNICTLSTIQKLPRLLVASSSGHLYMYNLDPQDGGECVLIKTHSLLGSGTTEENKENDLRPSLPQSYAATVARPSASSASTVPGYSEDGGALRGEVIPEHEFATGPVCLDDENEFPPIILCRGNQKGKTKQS

Row | SMILES | lipid extraction from LUVs, Nycodenz flotation, native PAGE fluorescence (ATG2A) | liposome flotation, western blot (WIPI4) | liposome flotation, western blot (WIPI1)
1 | CCCCCCCC/C=C\CCCCCCCC(=O)OC[C@H](COP(=O)(O)OCCNc1ccc([N+](=O)[O-])c2nonc12)OC(=O)CCCCCCC/C=C\CCCCCCCC [NBD-PE, 1,2-dioleoyl-sn-glycero-3-phosphoethanolamine-N-(7-nitro-2–1,3-benzoxadiazol-4-yl)] | ATG2A can extract NBD-PE from membranes and dissociate from the membrane with those lipids attached |  | 
2 | CCCCCCCC/C=C\CCCCCCCC(=O)OC[C@H](COP(=O)(O)O[C@@H]1[C@H](O)[C@H](OP(=O)(O)O)[C@@H](O)[C@H](O)[C@H]1O)OC(=O)CCCCCCC/C=C\CCCCCCCC [PI3P] |  | both WIPIs bind to membranes in a PI3P-dependent manner | both WIPIs bind to membranes in a PI3P-dependent manner
